Data published in PMC3095642, “New Synthetic Thrombin Inhibitors: Molecular Design and Experimental Verification” (PLoS ONE, 2011).
Where two headings read alike, the source gives them in different places. Marks after values point to notes of the source that are not given here.

Key:
[1] = target: T1, Human thrombin (Homo sapiens, UniProt P00734); assay: Thrombin induced hydrolysis of specific substrates in buffer system; assay type: biochemical
T1 construct: Human thrombin (8.3 mg/ml) was obtained from Hematologic Technologies Inc; purchased Hematologic Technologies Inc. (Essex Junction, VT, USA)
Experimental: The kinetics of thrombin inhibition was determined from the hydrolysis reaction of a specific substrate by thrombin in the presence of the tested substances. The chromogenic substrate (Tosyl-Gly-Pro-Arg-p-nitroanilide) or fast fluorogenic substrate (BOC-Ala-Pro-Arg-AMC) was used.
Plate wells were filled with 20 mM HEPES (pH 8.0) containing 140 mM NaCl and 0.1% polyethylene glycol (molecular weight 6000 Da). Thereafter, substrate was sequentially added to each well (final concentration, 100 µM), followed by the substance being tested (to a final concentration that was varied) and thrombin (final concentration, 0.2 nM). The hydrolysis rate was monitored spectrophotometrically at 405 nm (absorption maximum of the reaction product – p-nitroaniline), or fluorometrically (λex = 380 nm; λem = 440 nm for fluorescent reaction product 7-amino-4-methylcoumarine).
The initial rate was determined as the slope of the linear portion of the kinetic curve over the first 10 to 20 min of measurement. The inhibitory effect was expressed as the percentage reduction of the initial hydrolysis rate. The reaction rate in the absence of inhibitor was taken as 100%. Each result is the mean of two parallel determinations.
The inhibitor concentration was determined decreasing hydrolysis rate to 50% (IC50). Values of the inhibition constants were calculated on the assumption about competitive mechanism of inhibition using equation (1) [drawing 1] (1) where: KI - the constant of inhibition,
• S - the concentration of a substrate (100 µM), • KM - the Michaelis constant of a specific substrate for thrombin (9.44 µM, average from ref. [23], [24] and our measurements for chromogenic and 13 µM for the fluorogenic substrate, respectively).

[2] = system: thrombin generation in normal donor plasma (PPP); assay: Thrombin generation test in plasma (endogenous thrombin potential, ETP); assay type: biochemical, human
Experimental: The kinetics of thrombin generation in plasma was monitored using a modification of the standard method using a slow fluorogenic substrate BOC-Ile-Gly-Arg-AMC [8]. Normal donor plasma (PPP) was placed in the wells (90 µl/well) of a 96-well flat-bottom microtiter plate, after which 10 µl of the substance solution to be tested was added in different concentrations, along with 10 µl of the slow fluorogenic substrate (initial concentration 5 mM). In the control wells (without inhibitor), 10 µl of the solvent used was added (20 mM HEPES, pH 7.5 and 140 mM NaCl; or pure ethanol, or dimethylsulfoxide (DMSO) for different substances). The samples were incubated at 37°C for 3–5 min before being activated with thromboplastin, which was a 1∶250 dilution of a standard prothrombin time reagent (Renam, Moscow, Russia) in the same buffer supplemented with 90 mM CaCl2. The final concentration of tissue factor during activation was about 4 pM. Thromboplastin (25 µl) was added to all wells simultaneously using a multichannel micropipette. The moment of thromboplastin addition was taken as time zero. The kinetics of accumulation of the fluorescent reaction product 7-amino-4-methylcoumarine (AMC) was recorded for 65 min with a fluorometric Fluoroscan II reader (LabSystem, Finland) (λex. = 380 nm; λem. = 440 nm). The results were averaged over two parallel samples. The error of parallel measurements was within 2–5%. At every moment, the rate of product accumulation is proportional to the instant thrombin concentration present in plasma. Therefore, the curve for the temporal evolution of thrombin in the system may be obtained using differentiation of the curve for AMC accumulation. For each sample, arbitrary fluorescence units were converted to absolute AMC concentrations using the calibration signal obtained by adding a known AMC concentration into each particular plasma sample in the presence of the fluorogenic substrate and the tested substance. The corrections were done taking into account the substrate consumption and the nonlinearity of the AMC calibration curve. The area under the thrombin time curve over a period of 60 min (endogenous thrombin potential, ETP) was determined.

[3] = system: C57Bl/6 mice; assay: Acute toxicity in mice; assay type: in vivo, mouse; details: females, mortality after 2 or less hours
Experimental: Preliminary safety examination for the best synthesized inhibitors was carried out by measuring their acute toxicity in C57Bl/6 mice (females, 26–28 g, intraperitoneal administration). The total number of animals used in each experiment was 20–35. The dose of inhibitor that caused mortality in half of the animals after 2 or less hours (LD50) was determined. […] For administration of different doses of an inhibitor, different volumes of the initial stock inhibitor solution were supplemented with corresponding volumes of vehicle (20% cremophore EL in normal saline) to obtain a constant administered volume of 1.8 ml in each case. To obtain the highest doses of inhibitors, the animals were injected with 2.3 ml of stock inhibitor solutions instead.

[4] = system: thrombin generation in normal donor plasma (PPP); details: ref [36], [37], read-out: IC50 for ETP reduction; cited from earlier work
[5] = system: C57Bl/6 mice; details: ref [38]; cited from earlier work
[6] = system: hemodilution-induced hypercoagulation in rats; assay: Model of hemodilution-induced hypercoagulation in rats; assay type: in vivo, rat; details: 23.0±4.5% blood loss, infusion of saline supplemented with 2 µM inhibitor, 10, 30 or 60 min after infusion
Experimental: In particular, 200 µl of PPP samples were placed in the wells of a 96-well plate. Then, 2 µl of a solution of fluorogenic substrate BOC-Ile-Gly-Arg-AMC in DMSO (initial concentration 41 mM) was added, and coagulation was triggered by 3 µl of activator, which was a 1∶20 dilution of a standard prothrombin time reagent (Renam, Moscow, Russia) in the buffer (20 mM HEPES, 140 mM NaCl, pH 7.5) supplemented with 1.4 M CaCl2. Measurement of fluorescence (120 min) and processing of the results obtained were carried out by the methods described earlier.
The anticoagulation activity of one of the new thrombin inhibitors (4i) was studied in vivo in a newly developed model of hemodilution-induced hypercoagulation in rats. Experiments were carried out on male outbred white rats weighing 250–450 g and housed in a vivarium. A polyethylene cannula was implanted into the right femoral artery of the rats, which were anesthetized with thiopental (40 mg/kg of body weight, i.p.), to a depth of 4–5 cm. […] Coagulation was analyzed in samples of blood collected before hemodilution for all animals. […] The volume of blood loss was calculated on the assumption that the total blood volume of the rat is equal to 6.5% of the body weight.

[7] = fast fluorogenic substrate (SFLUO), 100 µM, thrombin 0.2 nM, read-out: Inhibition of specific thrombin substrate hydrolysis in buffer system IC50
[8] = fast fluorogenic substrate (SFLUO), calculated from IC50 assuming a competitive mechanism of inhibition, read-out: Inhibition of specific thrombin substrate hydrolysis in buffer system KI
[9] = ETP reduction by 50% in plasma in vitro, read-out: IC50 for reduction of thrombin generation in plasma
[10] = chromogenic substrate (SCHR), read-out: Inhibition of thrombin activity (in buffer system) IC50
[11] = chromogenic substrate Tosyl-Gly-Pro-Arg-p-nitroanilide, calculated assuming competitive inhibition, KM 9.44 µM, read-out: KI for thrombin inhibition in buffer system
[12] = Table S2, read-out: IC50 for ETP reduction in plasma
[13] = chromogenic substrate (SCHR), calculated assuming competitive type of inhibition, read-out: Inhibition of thrombin activity (in buffer system) Ki

SMILES	IC50 [2, 9] [nM]	LD50 (mouse), intraperitoneal administration [3]	IC50 [1, 10] [nM]	Ki [1, 11] [nM]	also measured
CC12CCC3C(CC=C4CC(SC(=N)N)CCC43C)C1CCC2=O (stereo not drawn) [NSC 41339]	–	–	–	–	IC50 [1, 7]: 240000 nM; Ki [1, 8]: 27600 nM
Cc1cc(OCCCSC(=N)N)cc(OS(=O)(=O)c2ccccc2F)c1.I [8f]	1240	>653.1 ^5) mg/kg	23.5	2.03	–
Cc1cc(OCC[n+]2ccc(N)cc2)cc(OS(=O)(=O)c2ccccc2F)c1.[I-] [4e]	100	523.1 ± 92.3 mg/kg	3.5	0.3	–
CNC(=N)SCCCOc1cc(C)cc(OS(=O)(=O)c2ccccc2Cl)c1 [8g]	–	–	5500	–	IC50 [2, 12]: 25200 nM; Ki [1, 13]: 474 nM
Cc1cc(OCC[n+]2ccc(N)cc2)cc(OS(=O)(=O)c2ccccc2Cl)c1.[I-] [4f]	260	679.0 ± 152.7 mg/kg	2.44	0.21	–
CC(=O)C1CCC2C3CC=C4CC(SC(=N)N)CCC4(C)C3CCC12C (stereo not drawn) [NSC 123477]	–	–	–	–	IC50 [1, 7]: 75000 nM; Ki [1, 8]: 8600 nM
Cc1cc(OCC[n+]2ccc(N)cc2)cc(OS(=O)(=O)c2ccc(Cl)cc2)c1.[I-] [4h]	150	372.7 ± 84.6 mg/kg	9	0.78	–
N=C(N)c1ccc(-c2ccc(-c3ccc(C(=N)N)cc3)o2)cc1 [NSC 305831]	–	–	–	–	IC50 ([1]; chromogenic substrate (SCHR), 100 µM, thrombin 0.2 nM, read-out: Inhibition of specific thrombin substrate hydrolysis in buffer system IC50): 72000 nM; Ki ([1]; chromogenic substrate (SCHR), calculated from IC50 assuming a competitive mechanism of inhibition, read-out: Inhibition of specific thrombin substrate hydrolysis in buffer system KI): 6200 nM
Cc1cc(OCCCSC(=N)N)cc(OS(=O)(=O)c2ccccc2Cl)c1 [8e]	–	–	11.6	–	IC50 [2, 12]: 4100 nM; Ki [1, 13]: 1 nM
Cc1cc(OCCSC(=N)N)cc(OS(=O)(=O)c2ccccc2Cl)c1.I [8c]	160	793.5 ± 118.5 mg/kg	3.8	0.33	–
CC(C)(C)CC(C)(C)c1ccc(OCCSC(=N)N)cc1 [NSC 4482]	–	–	–	–	IC50 [1, 7]: 3450 nM; Ki [1, 8]: 400 nM
Cc1cc(OCCCSC(=N)N)cc(OS(=O)(=O)c2ccccc2)c1 [8a]	–	–	97	–	IC50 [2, 12]: 8000 nM; Ki [1, 13]: 8.4 nM
Cc1ccc2nc(-c3ccc(CSC(=N)N)cc3)oc(=O)c2c1 [NSC 328131]	–	–	–	–	IC50 [1, 7]: ~35000 nM; Ki [1, 8]: 4000 nM
Cc1cc(OCCSC(=N)N)cc(OS(=O)(=O)c2ccccc2)c1.I [8d]	900	>1111.1 mg/kg	11	0.95	–
Cc1cc(OCC[n+]2ccc(N)cc2)cc(OS(=O)(=O)c2ccccc2S(C)(=O)=O)c1.[I-] [4g]	160	166.7 ± 20.0 mg/kg	8.7	0.75	–
CNC(=N)SCCOc1cc(C)cc(OS(=O)(=O)c2ccccc2Cl)c1.I [8h]	530	>287.0 ^5) mg/kg	65.8	5.7	–
Cc1cc(OCCSC(=N)N)cc(OS(=O)(=O)c2ccccc2S(C)(=O)=O)c1.I [8b]	800	>458.0 ^5) mg/kg	17	1.5	–
CC1CNc2c(cccc2S(=O)(=O)N[C@@H](CCCNC(=N)N)C(=O)N2CC[C@@H](C)C[C@@H]2C(=O)O)C1 (stereo partly drawn) [Argatroban]	650	–	–	–	IC50 [4]: 600 to 970 nM; LD50 (mouse), intraperitoneal administration [5]: 475 mg/kg
Cc1cc(OCCC[n+]2ccc(N)cc2)cc(OS(=O)(=O)c2ccccc2Cl)c1 [4d]	–	–	3400	–	IC50 [2, 12]: 40000 nM; Ki [1, 13]: 293 nM
Cc1cc(OCC[n+]2ccc(N)cc2)cc(OS(=O)(=O)c2ccccc2)c1.[I-] [4i]	250	418.9 ± 33.0 mg/kg	9	0.78	Effect on development of hypercoagulation (change of ETP relative to initial level) [6]: canceled the hypercoagulation effect of hemodilution
